According to patent publication US20250145665A1, “MACROCYCLIC PEPTIDES USEFUL AS MODULATORS OF TNF ALPHA” (Bristol-Myers Squibb Company, priority 2023, published 2025):
Positions of bridges follow the written chain, without caps; N, C: chain ends. Non-standard residues stand in square brackets, D forms with d. Residues, ends and D or L forms follow the SMILES beside them. Bip(4'-COOH) = N[C@@H](Cc1ccc(-c2ccc(C(=O)O)cc2)cc1)C(=O)O; Bip(4'-NHAc) = CC(=O)Nc1ccc(-c2ccc(C[C@H](N)C(=O)O)cc2)cc1; Phe(4-CF3) = N[C@@H](Cc1ccc(C(F)(F)F)cc1)C(=O)O; Ala(morpholin-4-yl) = N[C@@H](CN1CCOCC1)C(=O)O; Phe(3-CONH2) = NC(=O)c1cccc(C[C@H](N)C(=O)O)c1; Bip = N[C@@H](Cc1ccc(-c2ccccc2)cc1)C(=O)O; Morpholine(3S-CO) = O=C(O)[C@@H]1COCCN1; Phe(4-Me) = Cc1ccc(C[C@H](N)C(=O)O)cc1; Bta = N[C@@H](Cc1csc2ccccc12)C(=O)O; Val(3-OH) = CC(C)(O)[C@H](N)C(=O)O; h4Pal = N[C@@H](CCc1ccncc1)C(=O)O; hArg = N=C(N)NCCCC[C@H](N)C(=O)O; hPhe = N[C@@H](CCc1ccccc1)C(=O)O; Pip = O=C(O)[C@@H]1CCCCN1; Nle = CCCC[C@H](N)C(=O)O; Aze = O=C(O)[C@@H]1CCN1; Abu = CC[C@H](N)C(=O)O; Sar = CNCC(=O)O

molecular target: TNFα (Homo sapiens, UniProt P01375); assay: TNF-Induced HEK-Blue Assay; assay type: cell-based; settings: HEK-Blue-CD40L cells, NF-kB-driven secreted alkaline phosphatase reporter; TNFα 0.5 ng/ml; 18 h; read-out: TNF induced HEK-Blue assay IC50 value
Sequence (P01375 77-233 limits assumed): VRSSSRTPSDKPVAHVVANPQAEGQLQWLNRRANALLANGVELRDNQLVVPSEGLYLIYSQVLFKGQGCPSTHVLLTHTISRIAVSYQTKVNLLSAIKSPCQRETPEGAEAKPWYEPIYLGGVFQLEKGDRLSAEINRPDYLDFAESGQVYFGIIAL
Method: TNFα (final concentration 0.5 ng/ml) or CD40L (final concentration 30 ng/ml) in assay buffer [DMEM, 4.5 g/l glucose (Gibco, Cat. 21063-029), 10% FBS (Sigma, F4135), 1% Penicillin-Streptomycin (Gibco, Cat. 15140-122), 1% Anti-Anti (Gibco, Cat. 15240-112) and 2 mM L-glutamine (Gibco, Cat. 25030-081)] was then added to the assay plate. After a 30 minute pre-incubation at 37° C. and 5% CO2, HEK-Blue™-CD40L cells (INVIVOGEN, Cat. Code hkb-cd40) containing a NF-kB-driven secreted alkaline phosphatase reporter gene were seeded into the assay plate at a density of 20,000 cells per well. This plate was then incubated for 18 h at 37° C. and 5% CO2. Secreted alkaline phosphatase expression was measured using QUANTI-Blue™ (INVIVOGEN, Cat. Code rep-qb1) according to manufacturer's specifications and the assay plate was read on a PerkinElmer Envision at 620 nm.
IC50 values were determined after correcting for background [(sample read-mean of low control)/(mean of high control-mean of low control)] where by the low control is DMSO without stimulation and high control is DMSO with stimulation.

| Compound | IC50 [nM] |
| --- | --- |
| Cc1ccc(C[C@@H]2NC(=O)[C@H](C(C)C)NC(=O)[C@@H]3CCCN3C(=O)[C@H](C(C)C)NC(=O)[C@@H](CCCNC(=N)N)NC(=O)[C@H](CC(=O)O)NC(=O)[C@H](Cc3ccc(O)cc3)NC(=O)CN(C)C(=O)[C@H](Cc3ccc(-c4ccccc4)cc3)NC(=O)[C@H](Cc3ccc(-c4ccccc4)cc3)NC(=O)[C@H](CN3CCOCC3)NC(=O)CSC[C@@H](C(=O)NCC(N)=O)NC(=O)[C@H](CC(C)C)NC2=O)cc1 [Example 152] ({CH2CO}-[Ala(morpholin-4-yl)][Bip][Bip][Sar]YD[dR]VPV[Phe(4-Me)]LCG-NH2; thioether N-13) | 50 to 200 |
| CC(C)C[C@@H]1NC(=O)[C@H](CCc2ccccc2)NC(=O)[C@H](C(C)C)NC(=O)[C@@H]2CCCN2C(=O)[C@H](C(C)C)NC(=O)[C@@H](CCCNC(=N)N)NC(=O)[C@H](CC(=O)O)NC(=O)[C@H](Cc2ccc(O)cc2)NC(=O)CN(C)C(=O)[C@H](Cc2ccc(-c3ccccc3)cc2)NC(=O)[C@H](Cc2ccc(-c3ccccc3)cc2)NC(=O)[C@H](CN2CCOCC2)NC(=O)CSC[C@@H](C(=O)NCC(N)=O)NC1=O [Example 154] ({CH2CO}-[Ala(morpholin-4-yl)][Bip][Bip][Sar]YD[dR]VPV[hPhe]LCG-NH2; thioether N-13) | 50 to 200 |
| CC(C)C[C@@H]1NC(=O)[C@H](CCc2ccncc2)NC(=O)[C@H](C(C)C)NC(=O)[C@@H]2CCCN2C(=O)[C@H](C(C)C)NC(=O)[C@@H](CCCNC(=N)N)NC(=O)[C@H](CC(=O)O)NC(=O)[C@H](Cc2ccc(O)cc2)NC(=O)CN(C)C(=O)[C@H](Cc2ccc(-c3ccccc3)cc2)NC(=O)[C@H](Cc2ccc(-c3ccccc3)cc2)NC(=O)[C@H](CN2CCOCC2)NC(=O)CSC[C@@H](C(=O)NCC(N)=O)NC1=O [Example 155] ({CH2CO}-[Ala(morpholin-4-yl)][Bip][Bip][Sar]YD[dR]VPV[h4Pal]LCG-NH2; thioether N-13) | < 50 |
| CC(C)C[C@@H]1NC(=O)[C@H](Cc2cccc(C(N)=O)c2)NC(=O)[C@H](C(C)C)NC(=O)[C@@H]2CCCN2C(=O)[C@H](C(C)C)NC(=O)[C@@H](CCCNC(=N)N)NC(=O)[C@H](CC(=O)O)NC(=O)[C@H](Cc2ccc(O)cc2)NC(=O)CN(C)C(=O)[C@H](Cc2ccc(-c3ccccc3)cc2)NC(=O)[C@H](Cc2ccc(-c3ccccc3)cc2)NC(=O)[C@H](CN2CCOCC2)NC(=O)CSC[C@@H](C(=O)NCC(N)=O)NC1=O [Example 156] ({CH2CO}-[Ala(morpholin-4-yl)][Bip][Bip][Sar]YD[dR]VPV[Phe(3-CONH2)]LCG-NH2; thioether N-13) | 50 to 200 |
| CC(C)C[C@@H]1NC(=O)[C@H](Cc2ccc(C(F)(F)F)cc2)NC(=O)[C@H](C(C)C)NC(=O)[C@@H]2CCCN2C(=O)[C@H](C(C)C)NC(=O)[C@@H](CCCNC(=N)N)NC(=O)[C@H](CC(=O)O)NC(=O)[C@H](Cc2ccc(O)cc2)NC(=O)CN(C)C(=O)[C@H](Cc2ccc(-c3ccccc3)cc2)NC(=O)[C@H](Cc2ccc(-c3ccccc3)cc2)NC(=O)[C@H](CN2CCOCC2)NC(=O)CSC[C@@H](C(=O)NCC(N)=O)NC1=O [Example 157] ({CH2CO}-[Ala(morpholin-4-yl)][Bip][Bip][Sar]YD[dR]VPV[Phe(4-CF3)]LCG-NH2; thioether N-13) | 200 to 2000 |
| CC(C)C[C@@H]1NC(=O)[C@H](Cc2csc3ccccc23)NC(=O)[C@H](C(C)C)NC(=O)[C@@H]2CCCN2C(=O)[C@H](C(C)C)NC(=O)[C@@H](CCCNC(=N)N)NC(=O)[C@H](CC(=O)O)NC(=O)[C@H](Cc2ccc(O)cc2)NC(=O)CN(C)C(=O)[C@H](Cc2ccc(-c3ccccc3)cc2)NC(=O)[C@H](Cc2ccc(-c3ccccc3)cc2)NC(=O)[C@H](CN2CCOCC2)NC(=O)CSC[C@@H](C(=O)NCC(N)=O)NC1=O [Example 158] ({CH2CO}-[Ala(morpholin-4-yl)][Bip][Bip][Sar]YD[dR]VPV[Bta]LCG-NH2; thioether N-13) | 200 to 2000 |
| CC(C)C[C@@H]1NC(=O)[C@H](CCCCNC(=N)N)NC(=O)[C@H](C(C)C)NC(=O)[C@@H]2CCCN2C(=O)[C@H](C(C)C)NC(=O)[C@@H](CCCNC(=N)N)NC(=O)[C@H](CC(=O)O)NC(=O)[C@H](Cc2ccc(O)cc2)NC(=O)CN(C)C(=O)[C@H](Cc2ccc(-c3ccccc3)cc2)NC(=O)[C@H](Cc2ccc(-c3ccccc3)cc2)NC(=O)[C@H](CN2CCOCC2)NC(=O)CSC[C@@H](C(=O)NCC(N)=O)NC1=O [Example 159] ({CH2CO}-[Ala(morpholin-4-yl)][Bip][Bip][Sar]YD[dR]VPV[hArg]LCG-NH2; thioether N-13) | < 50 |
| CC(=O)Nc1ccc(-c2ccc(C[C@@H]3NC(=O)[C@H](Cc4ccc(-c5ccccc5)cc4)NC(=O)[C@H](CN4CCOCC4)NC(=O)CSC[C@@H](C(=O)NCC(N)=O)NC(=O)[C@H](CC(C)C)NC(=O)[C@H](CCCNC(=N)N)NC(=O)[C@H](C(C)(C)O)NC(=O)[C@@H]4CCCN4C(=O)[C@H](C(C)C)NC(=O)[C@@H](CCCNC(=N)N)NC(=O)[C@H](CC(=O)O)NC(=O)[C@@H]4CCCN4C(=O)CN(C)C3=O)cc2)cc1 [Example 160] ({CH2CO}-[Ala(morpholin-4-yl)][Bip][Bip(4'-NHAc)][Sar]PD[dR]VP[Val(3-OH)]RLCG-NH2; thioether N-13) | 50 to 200 |
| CC[C@@H]1NC(=O)[C@@H]2CCCN2C(=O)[C@H](C(C)C)NC(=O)[C@@H](CCCNC(=N)N)NC(=O)[C@H](CC(=O)O)NC(=O)[C@H](Cc2ccc(O)cc2)NC(=O)CN(C)C(=O)[C@H](Cc2ccc(-c3ccccc3)cc2)NC(=O)[C@H](Cc2ccc(-c3ccccc3)cc2)NC(=O)[C@H](CN2CCOCC2)NC(=O)CSC[C@@H](C(=O)NCC(N)=O)NC(=O)[C@H](CC(C)C)NC(=O)[C@H](Cc2ccc(O)cc2)NC1=O [Example 161] ({CH2CO}-[Ala(morpholin-4-yl)][Bip][Bip][Sar]YD[dR]VP[Abu]YLCG-NH2; thioether N-13) | 50 to 200 |
| CC(C)C[C@@H]1NC(=O)[C@H](Cc2ccc(O)cc2)NC(=O)[C@H](C)NC(=O)[C@@H]2CCCN2C(=O)[C@H](C(C)C)NC(=O)[C@@H](CCCNC(=N)N)NC(=O)[C@H](CC(=O)O)NC(=O)[C@H](Cc2ccc(O)cc2)NC(=O)CN(C)C(=O)[C@H](Cc2ccc(-c3ccccc3)cc2)NC(=O)[C@H](Cc2ccc(-c3ccccc3)cc2)NC(=O)[C@H](CN2CCOCC2)NC(=O)CSC[C@@H](C(=O)NCC(N)=O)NC1=O [Example 162] ({CH2CO}-[Ala(morpholin-4-yl)][Bip][Bip][Sar]YD[dR]VPAYLCG-NH2; thioether N-13) | 50 to 200 |
| CCCC[C@@H]1NC(=O)[C@@H]2CCCN2C(=O)[C@H](C(C)C)NC(=O)[C@@H](CCCNC(=N)N)NC(=O)[C@H](CC(=O)O)NC(=O)[C@H](Cc2ccc(O)cc2)NC(=O)CN(C)C(=O)[C@H](Cc2ccc(-c3ccccc3)cc2)NC(=O)[C@H](Cc2ccc(-c3ccccc3)cc2)NC(=O)[C@H](CN2CCOCC2)NC(=O)CSC[C@@H](C(=O)NCC(N)=O)NC(=O)[C@H](CC(C)C)NC(=O)[C@H](Cc2ccc(O)cc2)NC1=O [Example 163] ({CH2CO}-[Ala(morpholin-4-yl)][Bip][Bip][Sar]YD[dR]VP[Nle]YLCG-NH2; thioether N-13) | 200 to 2000 |
| CC(=O)Nc1ccc(-c2ccc(C[C@@H]3NC(=O)[C@H](Cc4ccc(-c5ccc(C(=O)O)cc5)cc4)NC(=O)[C@H](CN4CCOCC4)NC(=O)CSC[C@@H](C(=O)NCC(N)=O)NC(=O)[C@H](CC(C)C)NC(=O)[C@H](Cc4ccc(O)cc4)NC(=O)[C@H](C(C)C)NC(=O)[C@@H]4CCCN4C(=O)[C@H](C(C)C)NC(=O)[C@@H](CCCNC(=N)N)NC(=O)[C@H](CC(=O)O)NC(=O)[C@H](Cc4ccc(O)cc4)NC(=O)CN(C)C3=O)cc2)cc1 [Example 164] ({CH2CO}-[Ala(morpholin-4-yl)][Bip(4'-COOH)][Bip(4'-NHAc)][Sar]YD[dR]VPVYLCG-NH2; thioether N-13) | < 50 |
| CC(=O)Nc1ccc(-c2ccc(C[C@@H]3NC(=O)[C@H](Cc4ccc(-c5ccc(C(=O)O)cc5)cc4)NC(=O)[C@H](CN4CCOCC4)NC(=O)CSC[C@@H](C(=O)NCC(N)=O)NC(=O)[C@H](CC(C)C)NC(=O)[C@H](CCCNC(=N)N)NC(=O)[C@H](C(C)C)NC(=O)[C@@H]4CCCN4C(=O)[C@H](C(C)C)NC(=O)[C@@H](CCCNC(=N)N)NC(=O)[C@H](CC(=O)O)NC(=O)[C@@H]4CCCN4C(=O)CN(C)C3=O)cc2)cc1 [Example 165] ({CH2CO}-[Ala(morpholin-4-yl)][Bip(4'-COOH)][Bip(4'-NHAc)][Sar]PD[dR]VPVRLCG-NH2; thioether N-13) | < 50 |
| CC(=O)Nc1ccc(-c2ccc(C[C@@H]3NC(=O)[C@H](Cc4ccc(-c5ccc(C(=O)O)cc5)cc4)NC(=O)[C@H](CN4CCOCC4)NC(=O)CSC[C@@H](C(=O)NCC(N)=O)NC(=O)[C@H](CC(C)C)NC(=O)[C@H](Cc4ccc(O)cc4)NC(=O)[C@H](C(C)C)NC(=O)[C@@H]4CCN4C(=O)[C@H](C(C)C)NC(=O)[C@@H](CCCNC(=N)N)NC(=O)[C@H](CC(=O)O)NC(=O)[C@H](Cc4ccc(O)cc4)NC(=O)CN(C)C3=O)cc2)cc1 [Example 166] ({CH2CO}-[Ala(morpholin-4-yl)][Bip(4'-COOH)][Bip(4'-NHAc)][Sar]YD[dR]V[Aze]VYLCG-NH2; thioether N-13) | < 50 |
| CC(=O)Nc1ccc(-c2ccc(C[C@@H]3NC(=O)[C@H](Cc4ccc(-c5ccc(C(=O)O)cc5)cc4)NC(=O)[C@H](CN4CCOCC4)NC(=O)CSC[C@@H](C(=O)NCC(N)=O)NC(=O)[C@H](CC(C)C)NC(=O)[C@H](Cc4ccc(O)cc4)NC(=O)[C@H](C(C)C)NC(=O)[C@@H]4COCCN4C(=O)[C@H](C(C)C)NC(=O)[C@@H](CCCNC(=N)N)NC(=O)[C@H](CC(=O)O)NC(=O)[C@H](Cc4ccc(O)cc4)NC(=O)CN(C)C3=O)cc2)cc1 [Example 167] ({CH2CO}-[Ala(morpholin-4-yl)][Bip(4'-COOH)][Bip(4'-NHAc)][Sar]YD[dR]V[Morpholine(3S-CO)]VYLCG-NH2; thioether N-13) | 50 to 200 |
| CC(=O)Nc1ccc(-c2ccc(C[C@@H]3NC(=O)[C@H](Cc4ccc(-c5ccc(C(=O)O)cc5)cc4)NC(=O)[C@H](CN4CCOCC4)NC(=O)CSC[C@@H](C(=O)NCC(N)=O)NC(=O)[C@H](CC(C)C)NC(=O)[C@H](Cc4ccc(O)cc4)NC(=O)[C@H](C(C)C)NC(=O)[C@@H]4CCCCN4C(=O)[C@H](C(C)C)NC(=O)[C@@H](CCCNC(=N)N)NC(=O)[C@H](CC(=O)O)NC(=O)[C@H](Cc4ccc(O)cc4)NC(=O)CN(C)C3=O)cc2)cc1 [Example 168] ({CH2CO}-[Ala(morpholin-4-yl)][Bip(4'-COOH)][Bip(4'-NHAc)][Sar]YD[dR]V[Pip]VYLCG-NH2; thioether N-13) | < 50 |
